Assay results: patent EP3325012B1, “CINEOLE-CONTAINING COMPOSITION FOR TREATING NOSE POLYPS” (Maria Clementine Martin Klosterfrau Vertriebsgesellschaft …, priority 2015, dated 2017)

Key:
Akt = assay: Western blot of Akt and P-Akt in nasal polyp protein extracts; type: cell-based, Mensch; settings: 100 µM; all analysed protein extracts of nasal polyps (Figur 5)
Description: (§1) Lysate von Geweben wurden durch Erhitzen über einen Zeitraum von 5 Minuten in einfachem SDS-Probenpuffer (Carl Roth GmbH, Karlsruhe, Deutschland) denaturiert. Die Proteinkonzentrationen wurden mittels des Bradford-Tests bestimmt und jeweils 30 µg Gesamtprotein wurden zur SDS-Polyacrylamid-Gel Elektrophorese eingesetzt (Mini-Protean TGX®, Any kD, BioRad, Hercules, CA, USA) und anschließend auf Nitrozellulosemembranen übertragen. Die Übertragung der Proteine wurde mittels Ponceau-Färbung kontrolliert.
Neben der Phosphorylierung an Serin-9/-21 wird die GSK-3-Aktivität auch auf dem Level seiner subzellulären Lokalisierung reguliert. GSK-3 kann zur Trennung von seinen Substraten in endolysosomale Vesikel verlagert werden, um die Kinase-Aktivität zu verringern. […] GSK-3 ist in die Regulation von zahlreichen biosynthetischen Signalwegen involviert und zahlreiche Kinasen sind in der Lage, die GSK-3-Aktivität durch Phosphorylierung an dessen aktivierenden oder hemmenden Phosphorylierungsstellen zu regulieren. Die Akt-Kinase (auch bekannt als PKB) wurde als Onkogen mit Serin/Threonin-Kinase-Aktivität identifiziert und es wurde gezeigt, dass diese in vivo einen negativen Regulator der GSK3-beta Aktivität darstellt. Akt kann durch Phosphorylierung an Serin-473 durch PDK1 aktiviert werden, wobei davon ausgegangen wird, dass PHLPP als Inhibitor von dessen Phosphorylierung fungiert. […]

aktivem beta-Catenin = assay: Western blot of active beta-catenin in nasal polyp tissue samples; type: cell-based, Mensch; settings: 100 µM, 24 Stunden incubation, versus medium controls (Figur 3)
Description: Proben von Nasenpolypen wurden in PBS gewaschen und vorsichtig homogenisiert. Es wurden Zellextrakte hergestellt und unter Verwendung von Lysepuffer 16 ("Human pluripotent stem cell array" (R&D Systems)) solubilisiert. Die Proteinkonzentrationen wurden bestimmt.
as §1, with “kontrolliert. […]” for “kontrolliert.”
Um die Beladungsmenge jeder Spur zu bestimmen, wurden die Nitrozellulosemembranen über Nacht bei 4 °C mit einem primären Antikörper der GAPDH (Cell Signaling Technology Inc., Massachusetts, Katalognummer: 14C10) in einer Verdünnung von 1 : 1.000 inkubiert. […] Die Pixeldichten wurden quantifiziert und mittels Fusion FX7® unter Einsatz von Bio-1D Software® dokumentiert. […]

Phosphokinasen = assay: Human Phospho-Kinase Antibody Array on nasal epithelial cells; type: cell-based, Mensch; settings: 100 µM, 24 Stunden; epithelial cells from nasal polyps compared with epithelial cells from inferior turbinates
Description: Pflanzliche Medikationen könnten diese Nebenwirkungen reduzieren. In der Naturheilkunde werden ätherische Öle aufgrund ihrer sekretolytischen Eigenschaften zur Behandlung von Menschen eingesetzt, die klinische Verwendung wird jedoch aufgrund von Reizungen der Atemwege nach Inhalation bzw. Aufnahme eingeschränkt. Der Hauptbestandteil von Eukalyptusöl, nämlich 1,8-Cineol, wurde zur Behandlung von akuter und chronischer Bronchitis, Sinusitis und respiratorischen Infekten eingesetzt und allgemein gut vertragen. Bei dem Monoterpen 1,8-Cineol handelt es sich um ein Isoprenoid mit antiinflammatorischen Eigenschaften, welches menschlichen Isoprenoiden, wie Glucocorticoid, ähnelt. Unlängst wurden seitens der Anmelderin neue Eigenschaften des Mechanismus von 1,8-Cineol in Epithelzellen des Nasenpolypengewebes von Patienten mit chronischer Rhinosinusitis entdeckt. Im Rahmen dieser Studien hat die Anmelderin Epithelzellen aus Nasenpolypen und Gewebe der unteren Nasenmuscheln von zahlreichen Patienten isoliert und über einen Zeitraum von 24 Stunden in 100 µM 1,8-Cineol inkubiert. Die Proteine wurden isoliert und die Phosphokinasen mit Hilfe des "Human Phospho-Kinase Antibody Array" von R&D Systems ermittelt. […]

HNSCC-Zelllinien = assay: MTT assay, vitality and proliferation of HNSCC cell lines; type: cell-based; settings: 1 mM bis 10 mM, 250 Stunden, two cell lines
Description: Es wurden weiterführende Untersuchungen durchgeführt zur Analyse des Einflusses von Cineol auf die Vitalität und Proliferation verschiedener permanenter Zelllinien. Hierzu wurden einerseits die zwei HNSCC-Zelllinien und des Weiteren eine Fibroblastenzelllinie verwendet. Diese wurden über einen Zeitraum von 250 Stunden mit verschiedenen Cineol-Konzentrationen kultiviert (1 mM bis 10 mM) und die Vitalität der Zellen wurde jeweils mittels eines MTT-Assays untersucht.

Question: How did the “Phosphorylierungslevel von Akt an Serin-473” value (Akt) turn out when CC12CCC(CC1)C(C)(C)O2 [1,8-Cineol, 1,3,3-Trimethyl-2-oxabicyclo[2.2.2]octan] was run?
Answer: The value was “nicht wesentlich beeinflusst”.

Question: What about the “Expressionslevel von aktivem beta-Catenin” value (aktivem beta-Catenin) of the same compound?
Answer: Its value is “verschwanden aktive beta-Catenin-Proteine fast vollständig”.

Question: And the “Expression von Phosphokinasen” value (Phosphokinasen)?
Answer: Its value is “veränderte Expression”.

Question: And the “Progression und Vitalität von HNSCC” value (HNSCC-Zelllinien)?
Answer: Its value is “inhibierender Einfluss”.
